From patent publication US10681908B2, “Molecules having pesticidal utility, and intermediates, compositions, and processes, related thereto” (Dow AgroSciences LLC, priority 2016, dated 2020) come the findings set out here.

In general, mortality refers to the share of the test organisms that died.

The test system of assay [1] is Cabbage Looper (Trichoplusia ni, TRIPNI). As to the kind of experiment: Bioassay on Cabbage Looper (CL), 128-well diet tray assay. The format is in vivo. The following applies: 168 h, 50 μg/cm^2 on artificial diet, second instar larvae, five to seven days, 25° C., read-out: CL % Control (or Mortality) rating. Summed up: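 Percent mortality, averaged over eight wells, scored after five to seven days at 25° C. under 14:10 light-dark. Each well held 1–5 second-instar larvae on artificial diet treated with 50 μg/cm^2 test molecule applied in 90:10 acetone-water and dried.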

Assay [2] relates to Beet Armyworm (Spodoptera exigua, LAPHEG). The assay is described as follows: Bioassay on Beet Armyworm (BAW), 128-well diet tray assay. The format is in vivo. The following applies: 168 h, 50 μg/cm^2 on artificial diet, second instar larvae, five to seven days, 25° C., read-out: BAW % Control (or Mortality) rating. The method in brief: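 Mortality of second-instar larvae (one to five per well) was scored after five to seven days at 25 °C under 14:10 light-dark and averaged across eight wells. Each well's diet had received 50 μg/cm^2 test molecule from a 90:10 acetone-water solution, allowed to dry before infestation.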

As to `C[C@H](CS(C)(=O)=O)NC(=O)c1ccc(/C(F)=C/C(c2cc(Cl)c(Cl)c(Cl)c2)C(F)(F)F)cc1C(F)(F)F` (stereo partly drawn) [F87, N—((R)-1-(methylsulfonyl)propan-2-yl)-4-((Z)-1,4,4,4-tetrafluoro-3-(3,4,5-trichlorophenyl)but-1-en-1-yl)-2-(trifluoromethyl)benzamide], the mortality at 50 µg/cm2 in assay [1] and in assay [2] was 50 to 100% throughout.
Take `CSC(C)CNC(=O)c1ccc(/C(F)=C/C(c2cc(Cl)c(Cl)c(Cl)c2)C(F)(F)F)cc1C(F)(F)F` (stereo not drawn) [F89, (Z)—N-(2-(Methylthio)propyl)-4-(1,4,4,4-tetrafluoro-3-(3,4,5-trichlorophenyl)but-1-en-1-yl)-2-(trifluoromethyl)benzamide]: the mortality at 50 µg/cm2 in assay [1] and in assay [2] was 50 to 100% each time.
Turning to `CC(CNC(=O)c1ccc(/C(F)=C/C(c2cc(Cl)c(Cl)c(Cl)c2)C(F)(F)F)cc1C(F)(F)F)[S+](C)[O-]` (stereo not drawn) [F90, (Z)—N-(2-(Methylsulfinyl)propyl)-4-(1,4,4,4-tetrafluoro-3-(3,4,5-trichlorophenyl)but-1-en-1-yl)-2-(trifluoromethyl)benzamide], the mortality at 50 µg/cm2 in assay [1] and in assay [2] was 50 to 100% in each case.
As for `C[C@H](CS(=O)(=O)CC(F)(F)F)NC(=O)c1ccc(/C(F)=C/C(c2cc(F)c(F)c(Br)c2)C(F)(F)F)cc1C(F)(F)F` (stereo partly drawn) [F94, 4-((Z)-3-(3-Bromo-4,5-difluorophenyl)-1,4,4,4-tetrafluorobut-1-en-1-yl)-N—((R)-1-((2,2,2-trifluoroethyl)sulfonyl)propan-2-yl)-2-(trifluoromethyl)benzamide], the mortality at 50 µg/cm2 in assay [1] and in assay [2] was 50 to 100% in each case.
As for `C[C@H](C[S+]([O-])CC(C)(F)F)NC(=O)c1ccc(/C(F)=C/C(c2cc(Cl)c(Cl)c(Cl)c2)C(F)(F)F)cc1C(F)(F)F` (stereo partly drawn) [F96, N-((2R)-1-((2,2-Difluoropropyl)sulfinyl)propan-2-yl)-4-((Z)-1,4,4,4-tetrafluoro-3-(3,4,5-trichlorophenyl)but-1-en-1-yl)-2-(trifluoromethyl)benzamide], the mortality at 50 µg/cm2 in assay [1] and in assay [2] was 50 to 100% each time.
As to `C[C@H](CS(=O)(=O)CC(C)(F)F)NC(=O)c1ccc(/C(F)=C/C(c2cc(Cl)c(Cl)c(Cl)c2)C(F)(F)F)cc1C(F)(F)F` (stereo partly drawn) [F97, N—((R)-1-((2,2-difluoropropyl)sulfonyl)propan-2-yl)-4-((Z)-1,4,4,4-tetrafluoro-3-(3,4,5-trichlorophenyl)but-1-en-1-yl)-2-(trifluoromethyl)benzamide], the mortality at 50 µg/cm2 in assay [1] and in assay [2] was 50 to 100% each time.
Turning to `CC(C)(CS(C)(=O)=O)NC(=O)c1ccc(/C(F)=C/C(c2cc(Cl)c(Cl)c(Cl)c2)C(F)(F)F)cc1C(F)(F)F` (stereo not drawn) [F100, (Z)—N-(2-Methyl-1-(methylsulfonyl)propan-2-yl)-4-(1,4,4,4-tetrafluoro-3-(3,4,5-trichlorophenyl)but-1-en-1-yl)-2-(trifluoromethyl)benzamide], the mortality at 50 µg/cm2 in assay [1] and in assay [2] was 50 to 100% throughout.
With `CSC(C)C(C)NC(=O)c1ccc(/C(F)=C/C(c2cc(Cl)c(Cl)c(Cl)c2)C(F)(F)F)cc1C(F)(F)F` (stereo not drawn) [F101, (Z)—N-(3-(methylthio)butan-2-yl)-4-(1,4,4,4-tetrafluoro-3-(3,4,5-trichlorophenyl)but-1-en-1-yl)-2-(trifluoromethyl)benzamide], the mortality at 50 µg/cm2 in assay [1] and in assay [2] was 50 to 100% each time.
Consider `C[C@H](CS(=O)(=O)CC(F)(F)F)NC(=O)c1ccc(/C(F)=C/C(c2ccc(OC(F)(F)F)c(Cl)c2)C(F)(F)F)cc1C(F)(F)F` (stereo partly drawn) [F109, 4-((Z)-3-(3-Chloro-4-(trifluoromethoxy)phenyl)-1,4,4,4-tetrafluorobut-1-en-1-yl)-N—((R)-1-((2,2,2-trifluoroethyl)sulfonyl)propan-2-yl)-2-(trifluoromethyl)benzamide], for which the mortality at 50 µg/cm2 in assay [1] and in assay [2] was 50 to 100% in each case.
Turning to `C[C@H](CS(=O)(=O)CC(F)(F)F)NC(=O)c1ccc(/C(F)=C/C(c2cc(Cl)cc(OC(F)(F)F)c2)C(F)(F)F)cc1C(F)(F)F` (stereo partly drawn) [F110, 4-((Z)-3-(3-Chloro-5-(trifluoromethoxy)phenyl)-1,4,4,4-tetrafluorobut-1-en-1-yl)-N—((R)-1-((2,2,2-trifluoroethyl)sulfonyl)propan-2-yl)-2-(trifluoromethyl)benzamide], the mortality at 50 µg/cm2 in assay [1] and in assay [2] was 50 to 100% throughout.
As to `C=Cc1cc(Cl)cc(C(/C=C(\F)c2ccc(C(=O)N[C@H](C)CS(=O)(=O)CC(F)(F)F)c(C(F)(F)F)c2)C(F)(F)F)c1` (stereo partly drawn) [F112, 4-((Z)-3-(3-Chloro-5-vinylphenyl)-1,4,4,4-tetrafluorobut-1-en-1-yl)-N—((R)-1-((2,2,2-trifluoroethyl)sulfonyl)propan-2-yl)-2-(trifluoromethyl)benzamide], the mortality at 50 µg/cm2 in assay [1] and in assay [2] was 50 to 100% throughout.
Consider `C[C@H](CSCC(C)(F)F)NC(=O)c1ccc(/C(F)=C/C(c2cc(Cl)c(Cl)c(Cl)c2)C(F)(F)F)cc1C(F)(F)F` (stereo partly drawn) [F113, N—((R)-1-((2,2-Difluoropropyl)thio)propan-2-yl)-4-((Z)-1,4,4,4-tetrafluoro-3-(3,4,5-trichlorophenyl)but-1-en-1-yl)-2-(trifluoromethyl)benzamide], for which the mortality at 50 µg/cm2 in assay [1] and in assay [2] was 50 to 100% throughout.
On to `C=C(C)c1cc(C(/C=C(\F)c2ccc(C(=O)N[C@H](C)CS(=O)(=O)CC(F)(F)F)c(C(F)(F)F)c2)C(F)(F)F)cc(Cl)c1Cl` (stereo partly drawn) [F114, 4-((Z)-3-(3,4-Dichloro-5-(prop-1-en-2-yl)phenyl)-1,4,4,4-tetrafluorobut-1-en-1-yl)-N—((R)-1-((2,2,2-trifluoroethyl)sulfonyl)propan-2-yl)-2-(trifluoromethyl)benzamide], for which the mortality at 50 µg/cm2 in assay [1] and in assay [2] was 50 to 100% each time.
Take `C=Cc1cc(/C(F)=C/C(c2cc(Cl)c(Cl)c(Cl)c2)C(F)(F)F)ccc1C(=O)N[C@H](C)CS(=O)(=O)CC(F)(F)F` (stereo partly drawn) [F116]: the mortality at 50 µg/cm2 in assay [1] and in assay [2] was 50 to 100% in each case.
`C[C@H](CSCC(F)(F)F)NC(=O)c1ccc(/C(F)=C/C(c2cc(F)c(Cl)c(C(F)(F)F)c2)C(F)(F)F)cc1C(F)(F)F` (stereo partly drawn) [F117, 4-((Z)-3-(4-Chloro-3-fluoro-5-(trifluoromethyl)phenyl)-1,4,4,4-tetrafluorobut-1-en-1-yl)-N—((R)-1-((2,2,2-trifluoroethyl)thio)propan-2-yl)-2-(trifluoromethyl)benzamide]: the mortality at 50 µg/cm2 in assay [1] and in assay [2] was 50 to 100% each time.
Consider `C[C@H](CS(=O)(=O)CC(F)(F)F)NC(=O)c1ccc(/C(F)=C/C(c2cc(Cl)cc(C(C)(F)F)c2)C(F)(F)F)cc1C(F)(F)F` (stereo partly drawn) [F120, 4-((Z)-3-(3-Chloro-5-(1,1-difluoroethyl)phenyl)-1,4,4,4-tetrafluorobut-1-en-1-yl)-N—((R)-1-((2,2,2-trifluoroethyl)sulfonyl)propan-2-yl)-2-(trifluoromethyl)benzamide], for which the mortality at 50 µg/cm2 in assay [1] and in assay [2] was 50 to 100% each time.
`CC(CNC(=O)c1ccc(/C(F)=C/C(c2cc(Cl)c(Cl)c(Cl)c2)C(F)(F)F)cc1C(F)(F)F)S(C)(=O)=O` (stereo not drawn) [F124, (Z)—N-(2-(methylsulfonyl)propyl)-4-(1,4,4,4-tetrafluoro-3-(3,4,5-trichlorophenyl)but-1-en-1-yl)-2-(trifluoromethyl)benzamide]: the mortality at 50 µg/cm2 in assay [1] and in assay [2] was 50 to 100% throughout.
On to `C[C@H](CS(=O)(=O)CC(F)(F)F)NC(=O)c1ccc(/C(F)=C/C(c2cc(F)cc(Cl)c2)C(F)(F)F)cc1C(F)(F)F` (stereo partly drawn) [F126, 4-((Z)-3-(3-Chloro-5-fluorophenyl)-1,4,4,4-tetrafluorobut-1-en-1-yl)-N—((R)-1-((2,2,2-trifluoroethyl)sulfonyl)propan-2-yl)-2-(trifluoromethyl)benzamide], for which the mortality at 50 µg/cm2 in assay [1] and in assay [2] was 50 to 100% in each case.
Consider `C[C@H](CS(=O)(=O)CC(F)(F)F)NC(=O)c1ccc(/C(F)=C/C(c2ccc(Cl)c(OC(F)(F)F)c2)C(F)(F)F)cc1C(F)(F)F` (stereo partly drawn) [F127, 4-((Z)-3-(4-Chloro-3-(trifluoromethoxy)phenyl)-1,4,4,4-tetrafluorobut-1-en-1-yl)-N—((R)-1-((2,2,2-trifluoroethyl)sulfonyl)propan-2-yl)-2-(trifluoromethyl)benzamide], for which the mortality at 50 µg/cm2 in assay [1] and in assay [2] was 50 to 100% in each case.
For `C[C@H](CSCCC#N)NC(=O)c1ccc(/C(F)=C/C(c2cc(Cl)c(Cl)c(Cl)c2)C(F)(F)F)cc1C(F)(F)F` (stereo partly drawn) [F128, N—((R)-1-((2-Cyanoethyl)thio)propan-2-yl)-4-((Z)-1,4,4,4-tetrafluoro-3-(3,4,5-trichlorophenyl)but-1-en-1-yl)-2-(trifluoromethyl)benzamide], the mortality at 50 µg/cm2 in assay [1] and in assay [2] was 50 to 100% each time.
As for `C[C@H](CS(=O)(=O)CC(F)F)NC(=O)c1ccc(/C(F)=C/C(c2cc(Cl)c(Cl)c(Cl)c2)C(F)(F)F)cc1C(F)(F)F` (stereo partly drawn) [F129, N—((R)-1-((2,2-difluoroethyl)sulfonyl)propan-2-yl)-4-((Z)-1,4,4,4-tetrafluoro-3-(3,4,5-trichlorophenyl)but-1-en-1-yl)-2-(trifluoromethyl)benzamide], the mortality at 50 µg/cm2 in assay [1] and in assay [2] was 50 to 100% in each case.
